According to patent US11753395B2 (Kinnate Biopharma Inc., priority 2021, dated 2023):

Key:
[1] = target: T1, MET D1228N (Homo sapiens, UniProt P08581, D1228N); experiment: MET D1228N Mobility Shift Assay; settings: biochemical assay IC50; 100 μM ATP, 60 minute kinase reaction
T1 construct: purchased Signalchem M52-12IG
Outline: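 Enzyme at 0.313 nM preincubated 30 min at room temperature with 1.5 μM FAM-labelled peptide and 10 mM MgCl2 in HEPES buffer with DTT; reaction started with 100 μM ATP, run 60 min, stopped with EDTA. Substrate/product separated by microfluidic mobility shift; IC50 from inhibition of % conversion.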

[2] = target: T2, MET (Homo sapiens, UniProt P08581); experiment: MET Mobility Shift Assay; settings: biochemical assay IC50; 100 μM ATP, 60 minute kinase reaction
T2 construct: purchased Carna Biosciences 08-151
Outline: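 Recombinant MET at 0.625 nM was pre-incubated 30 min at room temperature with 1.5 μM FLPeptide30 and 10 mM MgCl2 in HEPES buffer with DTT. The reaction was started with 100 μM ATP, ran 60 min, and was stopped with EDTA. Microfluidic mobility-shift % conversion gave IC50.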

[3] = target: T3, Ba/F3-TPR-MET cells (Homo sapiens, UniProt P08581); experiment: CellTiter-Glo Cell Viability Assay, Ba/F3-TPR-MET; assay type: cell-based; settings: 72 hours
T3 construct: fused on or other part: P12270 (Nucleoprotein TPR)
Outline: (§1)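 Ba/F3 cells carrying TPR-MET or TPR-MET-D1228N, 3000 per well, were exposed for 72 h at 37 °C to 9-point 3-fold compound dilutions at 0.1% DMSO. Viability was read as ATP by CellTiter-Glo 2.0 luminescence, and IC50 values came from curve fitting.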

[4] = target: T4, Ba/F3-TPR-MET-D1228N cells (Homo sapiens, UniProt P08581, D1228N, cells depend on it); experiment: CellTiter-Glo Cell Viability Assay, Ba/F3-TPR-MET-D1228N; assay type: cell-based; settings: 72 hours
T4 construct: fused on or other part: P12270 (Nucleoprotein TPR)
Outline: as §1

T1 sequence (P08581 25-1390 D1228N): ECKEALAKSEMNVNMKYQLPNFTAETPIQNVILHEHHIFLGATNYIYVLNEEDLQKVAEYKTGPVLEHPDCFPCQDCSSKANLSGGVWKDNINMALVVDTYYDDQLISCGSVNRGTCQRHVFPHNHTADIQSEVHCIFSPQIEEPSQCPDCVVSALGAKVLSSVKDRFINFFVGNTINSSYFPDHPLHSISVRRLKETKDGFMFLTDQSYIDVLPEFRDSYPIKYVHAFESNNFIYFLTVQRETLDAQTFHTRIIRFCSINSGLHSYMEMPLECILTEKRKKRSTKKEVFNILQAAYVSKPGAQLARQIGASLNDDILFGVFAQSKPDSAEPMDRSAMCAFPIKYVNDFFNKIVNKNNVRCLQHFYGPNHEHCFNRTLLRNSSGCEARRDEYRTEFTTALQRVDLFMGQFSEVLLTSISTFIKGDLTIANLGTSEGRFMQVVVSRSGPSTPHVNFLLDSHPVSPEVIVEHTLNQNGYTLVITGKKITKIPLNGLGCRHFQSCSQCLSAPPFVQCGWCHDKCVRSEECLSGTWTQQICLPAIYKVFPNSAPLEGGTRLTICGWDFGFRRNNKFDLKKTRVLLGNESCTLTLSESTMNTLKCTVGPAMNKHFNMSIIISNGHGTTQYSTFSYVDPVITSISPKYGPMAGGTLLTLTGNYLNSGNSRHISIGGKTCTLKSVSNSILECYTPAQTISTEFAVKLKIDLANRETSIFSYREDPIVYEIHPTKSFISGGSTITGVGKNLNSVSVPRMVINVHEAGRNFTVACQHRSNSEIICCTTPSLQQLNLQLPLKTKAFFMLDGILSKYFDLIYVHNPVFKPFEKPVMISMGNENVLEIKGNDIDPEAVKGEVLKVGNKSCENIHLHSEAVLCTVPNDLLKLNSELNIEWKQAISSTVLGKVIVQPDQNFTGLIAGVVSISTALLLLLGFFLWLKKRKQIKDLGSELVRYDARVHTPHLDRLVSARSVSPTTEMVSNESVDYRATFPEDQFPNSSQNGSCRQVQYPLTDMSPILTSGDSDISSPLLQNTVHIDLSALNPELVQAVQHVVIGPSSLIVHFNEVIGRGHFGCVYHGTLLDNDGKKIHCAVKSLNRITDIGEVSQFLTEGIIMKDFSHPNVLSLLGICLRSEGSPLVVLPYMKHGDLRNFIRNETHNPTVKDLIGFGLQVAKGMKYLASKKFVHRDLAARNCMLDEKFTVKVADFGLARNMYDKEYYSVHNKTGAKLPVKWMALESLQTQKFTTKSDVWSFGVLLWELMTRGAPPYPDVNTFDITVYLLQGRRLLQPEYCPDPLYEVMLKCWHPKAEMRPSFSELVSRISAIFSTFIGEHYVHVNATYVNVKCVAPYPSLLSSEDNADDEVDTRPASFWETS
T4 sequence (P08581 whole entry D1228N, the tested form may be a part): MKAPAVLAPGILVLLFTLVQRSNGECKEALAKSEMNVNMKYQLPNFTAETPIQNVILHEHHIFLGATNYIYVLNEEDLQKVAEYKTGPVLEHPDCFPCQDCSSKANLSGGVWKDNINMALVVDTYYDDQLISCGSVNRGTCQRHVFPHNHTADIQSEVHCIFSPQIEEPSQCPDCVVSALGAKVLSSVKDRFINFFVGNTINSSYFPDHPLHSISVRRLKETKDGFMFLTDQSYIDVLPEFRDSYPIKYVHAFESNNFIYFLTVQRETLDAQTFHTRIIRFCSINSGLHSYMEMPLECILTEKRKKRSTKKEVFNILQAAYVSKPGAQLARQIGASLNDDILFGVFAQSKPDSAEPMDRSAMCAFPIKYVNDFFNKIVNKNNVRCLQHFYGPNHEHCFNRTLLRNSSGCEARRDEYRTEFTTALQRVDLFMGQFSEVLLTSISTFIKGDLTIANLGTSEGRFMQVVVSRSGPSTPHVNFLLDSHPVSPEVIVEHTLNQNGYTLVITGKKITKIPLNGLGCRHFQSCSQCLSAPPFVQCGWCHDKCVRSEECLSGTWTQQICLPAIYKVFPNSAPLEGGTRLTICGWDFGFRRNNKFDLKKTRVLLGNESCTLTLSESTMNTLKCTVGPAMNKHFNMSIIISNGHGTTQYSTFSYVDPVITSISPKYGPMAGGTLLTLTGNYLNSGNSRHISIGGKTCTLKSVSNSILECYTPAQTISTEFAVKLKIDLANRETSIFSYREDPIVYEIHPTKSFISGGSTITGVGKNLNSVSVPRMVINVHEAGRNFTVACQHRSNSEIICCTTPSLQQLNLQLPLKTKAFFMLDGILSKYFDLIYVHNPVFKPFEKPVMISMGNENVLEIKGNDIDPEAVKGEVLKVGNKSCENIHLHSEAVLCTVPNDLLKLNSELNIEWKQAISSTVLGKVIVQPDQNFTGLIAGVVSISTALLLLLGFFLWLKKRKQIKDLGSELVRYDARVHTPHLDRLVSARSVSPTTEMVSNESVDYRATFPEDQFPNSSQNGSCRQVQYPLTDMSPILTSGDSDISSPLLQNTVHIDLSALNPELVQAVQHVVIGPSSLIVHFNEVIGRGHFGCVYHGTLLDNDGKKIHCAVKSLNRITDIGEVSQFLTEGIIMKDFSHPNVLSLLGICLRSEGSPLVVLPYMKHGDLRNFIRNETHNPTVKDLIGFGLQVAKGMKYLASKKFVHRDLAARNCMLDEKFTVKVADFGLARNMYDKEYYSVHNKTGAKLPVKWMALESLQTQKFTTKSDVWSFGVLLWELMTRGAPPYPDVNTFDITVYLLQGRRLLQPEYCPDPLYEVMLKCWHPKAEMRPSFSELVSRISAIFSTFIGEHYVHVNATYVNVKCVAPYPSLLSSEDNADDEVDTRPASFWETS
T3 sequence (P08581 whole entry, change not shown, the tested form may be a part): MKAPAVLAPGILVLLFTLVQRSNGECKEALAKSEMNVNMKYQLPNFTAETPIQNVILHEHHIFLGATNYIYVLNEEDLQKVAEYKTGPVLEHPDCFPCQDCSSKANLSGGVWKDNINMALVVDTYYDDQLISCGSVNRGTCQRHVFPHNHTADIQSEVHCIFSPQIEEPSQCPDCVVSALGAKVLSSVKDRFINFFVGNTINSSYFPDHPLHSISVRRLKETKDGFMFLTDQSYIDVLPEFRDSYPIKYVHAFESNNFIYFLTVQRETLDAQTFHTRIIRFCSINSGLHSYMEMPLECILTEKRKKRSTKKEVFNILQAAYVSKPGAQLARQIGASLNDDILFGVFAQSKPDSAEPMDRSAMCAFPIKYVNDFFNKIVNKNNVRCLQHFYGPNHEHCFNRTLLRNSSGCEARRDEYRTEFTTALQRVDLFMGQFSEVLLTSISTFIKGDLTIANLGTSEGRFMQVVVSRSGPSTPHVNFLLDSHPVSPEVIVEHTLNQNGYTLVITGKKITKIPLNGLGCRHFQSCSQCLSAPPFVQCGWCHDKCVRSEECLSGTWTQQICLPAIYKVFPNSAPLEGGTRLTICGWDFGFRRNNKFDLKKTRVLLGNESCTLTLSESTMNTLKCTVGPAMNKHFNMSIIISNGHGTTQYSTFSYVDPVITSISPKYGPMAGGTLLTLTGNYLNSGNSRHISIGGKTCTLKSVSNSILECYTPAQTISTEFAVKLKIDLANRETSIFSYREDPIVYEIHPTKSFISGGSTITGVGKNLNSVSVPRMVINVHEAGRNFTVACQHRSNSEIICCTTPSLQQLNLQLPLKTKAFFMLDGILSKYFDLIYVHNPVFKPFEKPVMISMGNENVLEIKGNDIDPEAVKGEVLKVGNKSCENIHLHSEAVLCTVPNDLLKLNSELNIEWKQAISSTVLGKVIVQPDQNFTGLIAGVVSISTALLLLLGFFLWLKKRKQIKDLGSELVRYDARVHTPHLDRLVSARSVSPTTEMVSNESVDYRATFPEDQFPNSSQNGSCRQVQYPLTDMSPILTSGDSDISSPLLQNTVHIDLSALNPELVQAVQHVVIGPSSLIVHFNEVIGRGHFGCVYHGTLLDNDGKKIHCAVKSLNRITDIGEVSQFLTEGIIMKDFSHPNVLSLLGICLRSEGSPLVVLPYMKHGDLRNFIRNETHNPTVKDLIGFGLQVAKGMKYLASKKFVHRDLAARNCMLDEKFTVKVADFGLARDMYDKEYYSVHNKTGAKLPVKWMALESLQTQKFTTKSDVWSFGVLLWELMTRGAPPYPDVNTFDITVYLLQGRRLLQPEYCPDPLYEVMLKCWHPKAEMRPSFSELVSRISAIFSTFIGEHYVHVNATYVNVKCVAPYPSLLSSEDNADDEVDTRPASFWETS

Compound	IC50 [1] [µM]	IC50 [2] [µM]	EC50 [3] [µM]	EC50 [4] [µM]
CNCCCOc1cc2nccc(Oc3c(F)cc(NC(=O)c4cnccc4OC4CC4)cc3F)c2cc1OC [Example 84, 4-cyclopropoxy-N-(3,5-difluoro-4-((6-methoxy-7-(3-(methylamino)propoxy)quinolin-4-yl)oxy)phenyl)pyridine-3-carboxamide]	≤ 0.1	≤ 0.1	0.1 to 1	≤ 0.1
C[C@@H](O)COc1ccc2c(Oc3c(F)cc(NC(=O)c4cnccc4OC4CC4)cc3F)ccnc2c1 [Example 101, 4-cyclopropoxy-N-[3,5-difluoro-4-({7-[(2R)-2-hydroxypropoxy]quinolin-4-yl}oxy)phenyl]pyridine-3-carboxamide]	≤ 0.1	≤ 0.1	0.1 to 1	0.1 to 1
CNCCOc1cc2nccc(Oc3c(F)cc(NC(=O)c4cnc(Cl)cc4OC4CC4)cc3F)c2cc1OC [Example 112, 6-chloro-4-cyclopropoxy-N-[3,5-difluoro-4-({6-methoxy-7-[2-(methylamino)ethoxy]quinolin-4-yl}oxy)phenyl]pyridine-3-carboxamide]	≤ 0.1	≤ 0.1	0.1 to 1	0.1 to 1
COc1cc2nccc(Oc3c(F)cc(NC(=O)c4cnccc4OCC(F)F)cc3F)c2cc1OCCO [Example 143, N-(3,5-difluoro-4-((6-(2-hydroxyethoxy)-7-methoxyquinolin-4-yl)oxy)phenyl)-4-(2,2-difluoroethoxy)pyridine-3-carboxamide]	≤ 0.1	≤ 0.1	≤ 0.1	≤ 0.1
COc1cc2c(Oc3cc(F)c(NC(=O)c4cnc(N)cc4OC)cc3F)ccnc2cc1OCCCN1CCOCC1 [Example 31, 6-amino-N-(2,5-difluoro-4-((6-methoxy-7-(3-morpholinopropoxy)quinolin-4-yl)oxy)phenyl)-4-methoxypyridine-3-carboxamide]	≤ 0.1	≤ 0.1	0.1 to 1	0.1 to 1
O=C(Nc1cc(F)c(Oc2ccnc3cc(OC4CNC4)ccc23)c(F)c1)c1cnccc1OC1CC1 [Example 89, N-(4-{[7-(azetidin-3-yloxy)quinolin-4-yl]oxy}-3,5-difluorophenyl)-4-cyclopropoxypyridine-3-carboxamide]	≤ 0.1	≤ 0.1	0.1 to 1	0.1 to 1
COc1cc2nccc(Oc3c(F)cc(NC(=O)c4cnccc4OC)cc3F)c2cc1OCC(C)(C)O [Example 125, N-(3,5-difluoro-4-{[6-(2-hydroxy-2-methylpropoxy)-7-methoxyquinolin-4-yl]oxy}phenyl)-4-methoxypyridine-3-carboxamide]	≤ 0.1	≤ 0.1	≤ 0.1	≤ 0.1
COc1cc2c(Oc3c(F)cc(NC(=O)c4ccccc4F)cc3F)ccnc2cc1OCCO [Example 134, N-(3,5-difluoro-4-((7-(2-hydroxyethoxy)-6-methoxyquinolin-4-yl)oxy)phenyl)-2-fluorobenzamide]	≤ 0.1	≤ 0.1	≤ 0.1	≤ 0.1
CCCOc1ccncc1C(=O)Nc1cc(F)c(Oc2ccnc3cc(OCCNC)c(OC)cc23)c(F)c1 [Example 56, N-[3,5-difluoro-4-({6-methoxy-7-[2-(methylamino)ethoxy]quinolin-4-yl}oxy)phenyl]-4-propoxypyridine-3-carboxamide]	≤ 0.1	≤ 0.1	≤ 0.1	≤ 0.1
C[C@H](O)COc1ccc2c(Oc3c(F)cc(NC(=O)c4cnccc4OC4CC4)cc3F)ccnc2c1 [Example 102, 4-cyclopropoxy-N-[3,5-difluoro-4-({7-[(2S)-2-hydroxypropoxy]quinolin-4-yl}oxy)phenyl]pyridine-3-carboxamide]	≤ 0.1	≤ 0.1	0.1 to 1	0.1 to 1
CCOc1cc(N)ncc1C(=O)Nc1cc(F)c(Oc2ccnc3cc(OCCCN4CCOCC4)c(OC)cc23)cc1F [Example 32, 6-amino-N-[2,5-difluoro-4-({6-methoxy-7-[3-(morpholin-4-yl)propoxy]quinolin-4-yl}oxy)phenyl]-4-ethoxypyridine-3-carboxamide]	≤ 0.1	≤ 0.1	0.1 to 1	0.1 to 1
CNCCOc1cc2nccc(Oc3c(F)cc(NC(=O)c4cnc(F)cc4OC4CC4)cc3F)c2cc1OC [Example 110, 4-cyclopropoxy-N-[3,5-difluoro-4-({6-methoxy-7-[2-(methylamino)ethoxy]quinolin-4-yl}oxy)phenyl]-6-fluoropyridine-3-carboxamide]	≤ 0.1	≤ 0.1	≤ 0.1	≤ 0.1
COc1cc2nccc(Oc3c(F)cc(NC(=O)c4cnccc4OC)cc3F)c2cc1OC [Example 34, N-(4-((6,7-dimethoxyquinolin-4-yl)oxy)-3,5-difluorophenyl)-4-methoxypyridine-3-carboxamide]	≤ 0.1	≤ 0.1	0.1 to 1	≤ 0.1
CNCCCOc1cc2nccc(Oc3cc(F)c(NC(=O)c4cnccc4OC)cc3F)c2cc1OC [Example 22, N-[2,5-difluoro-4-({6-methoxy-7-[3-(methylamino)propoxy]quinolin-4-yl}oxy)phenyl]-4-methoxypyridine-3-carboxamide]	≤ 0.1	≤ 0.1	0.1 to 1	0.1 to 1
CNCCCOc1cc2nccc(Oc3c(F)cc(NC(=O)c4c(OC)ccnc4F)cc3F)c2cc1OC [Example 20, N-(3,5-difluoro-4-((6-methoxy-7-(3-(methylamino)propoxy)quinolin-4-yl)oxy)phenyl)-2-fluoro-4-methoxypyridine-3-carboxamide]	≤ 0.1	≤ 0.1	≤ 0.1	≤ 0.1
COc1cc2nccc(Oc3c(F)cc(NC(=O)c4ccncc4OC)cc3F)c2cc1O[C@@H](C)CO [Example 127, (S)-N-(3,5-difluoro-4-((6-((1-hydroxypropan-2-yl)oxy)-7-methoxyquinolin-4-yl)oxy)phenyl)-3-methoxyisonicotinamide]	≤ 0.1	≤ 0.1	≤ 0.1	≤ 0.1
COc1cc2c(Oc3c(F)cc(NC(=O)c4cnccc4OC)cc3F)ccnc2cc1OC(F)(F)F [Example 37, N-(3,5-difluoro-4-((6-methoxy-7-(trifluoromethoxy)quinolin-4-yl)oxy)phenyl)-4-methoxypyridine-3-carboxamide]	≤ 0.1	≤ 0.1	0.1 to 1	0.1 to 1
CNCCOc1cc2nccc(Oc3c(F)cc(NC(=O)c4cnccc4O[C@H]4CCOC4)cc3F)c2cc1OC [Example 71, N-[3,5-difluoro-4-({6-methoxy-7-[2-(methylamino)ethoxy]quinolin-4-yl}oxy)phenyl]-4-[(3S)-oxolan-3-yloxy]pyridine-3-carboxamide]	≤ 0.1	≤ 0.1	0.1 to 1	0.1 to 1
CCOc1ccncc1C(=O)Nc1cc(F)c(Oc2ccnc3cc(OCCNC)c(OC)cc23)c(F)c1 [Example 5, N-(3,5-difluoro-4-((6-methoxy-7-(2-(methylamino)ethoxy)quinolin-4-yl)oxy)phenyl)-4-ethoxypyridine-3-carboxamide]	≤ 0.1	≤ 0.1	≤ 0.1	≤ 0.1
